Measurements taken from ChEMBL document CHEMBL3991601, “The target landscape of clinical kinase drugs” (Science, 2017).
Activity calls are given as the source filed them.

Experiments:
[1] = target: Epidermal growth factor receptor (Homo sapiens, UniProt P00533)
[2] = target: Dual specificity testis-specific protein kinase 1 (Homo sapiens, UniProt Q15569)
[3] = target: Cyclin-dependent kinase 17 (Homo sapiens, UniProt Q00537)
[4] = target: T1, Protein kinase C zeta type (Homo sapiens, UniProt Q05513)
T1 sequence (Q05513 whole entry): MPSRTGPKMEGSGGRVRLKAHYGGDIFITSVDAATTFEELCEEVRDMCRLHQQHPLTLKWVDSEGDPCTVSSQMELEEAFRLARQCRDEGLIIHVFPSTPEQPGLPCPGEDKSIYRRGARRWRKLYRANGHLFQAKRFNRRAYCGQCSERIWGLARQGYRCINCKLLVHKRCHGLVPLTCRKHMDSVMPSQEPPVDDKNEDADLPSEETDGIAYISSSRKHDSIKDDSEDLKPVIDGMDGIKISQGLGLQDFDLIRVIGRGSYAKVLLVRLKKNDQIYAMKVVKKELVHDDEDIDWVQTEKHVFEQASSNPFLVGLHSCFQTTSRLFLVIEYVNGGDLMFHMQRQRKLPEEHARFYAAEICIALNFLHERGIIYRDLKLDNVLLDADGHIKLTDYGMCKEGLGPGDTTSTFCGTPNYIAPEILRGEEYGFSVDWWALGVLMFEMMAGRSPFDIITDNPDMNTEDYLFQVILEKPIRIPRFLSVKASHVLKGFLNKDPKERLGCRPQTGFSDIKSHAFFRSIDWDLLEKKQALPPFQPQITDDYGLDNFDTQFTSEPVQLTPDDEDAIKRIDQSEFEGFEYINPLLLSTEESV

[5] = target: Focal adhesion kinase 1 (Homo sapiens, UniProt Q05397)
Chain of Focal adhesion kinase 1 (Q05397 whole entry): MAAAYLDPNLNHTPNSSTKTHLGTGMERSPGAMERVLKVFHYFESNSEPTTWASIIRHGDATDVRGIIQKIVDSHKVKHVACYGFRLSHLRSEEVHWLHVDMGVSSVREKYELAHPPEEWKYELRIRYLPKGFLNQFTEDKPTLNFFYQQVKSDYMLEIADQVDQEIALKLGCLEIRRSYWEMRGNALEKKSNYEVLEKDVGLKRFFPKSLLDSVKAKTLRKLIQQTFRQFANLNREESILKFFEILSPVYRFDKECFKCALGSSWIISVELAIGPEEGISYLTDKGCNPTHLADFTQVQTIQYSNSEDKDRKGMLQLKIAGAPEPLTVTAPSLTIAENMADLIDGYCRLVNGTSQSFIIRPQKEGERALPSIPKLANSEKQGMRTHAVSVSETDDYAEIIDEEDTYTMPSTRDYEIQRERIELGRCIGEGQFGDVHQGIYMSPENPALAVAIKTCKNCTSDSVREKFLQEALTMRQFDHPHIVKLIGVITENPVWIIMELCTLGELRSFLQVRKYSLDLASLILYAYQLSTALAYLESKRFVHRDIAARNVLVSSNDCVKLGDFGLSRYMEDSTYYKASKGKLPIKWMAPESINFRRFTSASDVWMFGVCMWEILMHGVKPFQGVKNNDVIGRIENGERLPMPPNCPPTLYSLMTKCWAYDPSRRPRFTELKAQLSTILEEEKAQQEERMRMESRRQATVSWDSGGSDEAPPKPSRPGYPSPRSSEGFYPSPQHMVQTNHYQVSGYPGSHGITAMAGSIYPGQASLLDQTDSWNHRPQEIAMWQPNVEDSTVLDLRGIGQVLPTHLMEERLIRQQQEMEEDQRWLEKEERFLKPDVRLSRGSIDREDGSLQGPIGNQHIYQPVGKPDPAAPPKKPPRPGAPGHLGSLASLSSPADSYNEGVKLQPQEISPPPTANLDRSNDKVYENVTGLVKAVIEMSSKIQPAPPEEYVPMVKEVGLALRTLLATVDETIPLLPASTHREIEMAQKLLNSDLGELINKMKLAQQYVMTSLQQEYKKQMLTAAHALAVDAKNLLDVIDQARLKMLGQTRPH

[6] = target: Dual specificity protein kinase CLK4 (Homo sapiens, UniProt Q9HAZ1)
Chain of Dual specificity protein kinase CLK4 (Q9HAZ1 whole entry): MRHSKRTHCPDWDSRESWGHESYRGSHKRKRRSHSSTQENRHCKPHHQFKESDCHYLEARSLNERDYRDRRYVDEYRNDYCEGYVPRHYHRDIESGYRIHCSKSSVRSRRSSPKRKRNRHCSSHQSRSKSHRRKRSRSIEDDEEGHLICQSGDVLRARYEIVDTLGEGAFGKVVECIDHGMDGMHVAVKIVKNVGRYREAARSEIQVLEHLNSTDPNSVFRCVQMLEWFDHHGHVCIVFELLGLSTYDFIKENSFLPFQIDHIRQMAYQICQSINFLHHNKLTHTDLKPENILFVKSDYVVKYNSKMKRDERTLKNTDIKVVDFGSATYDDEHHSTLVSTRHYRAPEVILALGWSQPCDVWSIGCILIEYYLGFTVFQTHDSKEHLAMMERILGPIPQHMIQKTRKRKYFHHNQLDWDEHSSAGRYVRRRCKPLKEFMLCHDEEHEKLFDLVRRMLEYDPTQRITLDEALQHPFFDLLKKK

[7] = target: T2, Ephrin type-A receptor 1 (Homo sapiens, UniProt P21709)
T2 sequence (P21709 whole entry): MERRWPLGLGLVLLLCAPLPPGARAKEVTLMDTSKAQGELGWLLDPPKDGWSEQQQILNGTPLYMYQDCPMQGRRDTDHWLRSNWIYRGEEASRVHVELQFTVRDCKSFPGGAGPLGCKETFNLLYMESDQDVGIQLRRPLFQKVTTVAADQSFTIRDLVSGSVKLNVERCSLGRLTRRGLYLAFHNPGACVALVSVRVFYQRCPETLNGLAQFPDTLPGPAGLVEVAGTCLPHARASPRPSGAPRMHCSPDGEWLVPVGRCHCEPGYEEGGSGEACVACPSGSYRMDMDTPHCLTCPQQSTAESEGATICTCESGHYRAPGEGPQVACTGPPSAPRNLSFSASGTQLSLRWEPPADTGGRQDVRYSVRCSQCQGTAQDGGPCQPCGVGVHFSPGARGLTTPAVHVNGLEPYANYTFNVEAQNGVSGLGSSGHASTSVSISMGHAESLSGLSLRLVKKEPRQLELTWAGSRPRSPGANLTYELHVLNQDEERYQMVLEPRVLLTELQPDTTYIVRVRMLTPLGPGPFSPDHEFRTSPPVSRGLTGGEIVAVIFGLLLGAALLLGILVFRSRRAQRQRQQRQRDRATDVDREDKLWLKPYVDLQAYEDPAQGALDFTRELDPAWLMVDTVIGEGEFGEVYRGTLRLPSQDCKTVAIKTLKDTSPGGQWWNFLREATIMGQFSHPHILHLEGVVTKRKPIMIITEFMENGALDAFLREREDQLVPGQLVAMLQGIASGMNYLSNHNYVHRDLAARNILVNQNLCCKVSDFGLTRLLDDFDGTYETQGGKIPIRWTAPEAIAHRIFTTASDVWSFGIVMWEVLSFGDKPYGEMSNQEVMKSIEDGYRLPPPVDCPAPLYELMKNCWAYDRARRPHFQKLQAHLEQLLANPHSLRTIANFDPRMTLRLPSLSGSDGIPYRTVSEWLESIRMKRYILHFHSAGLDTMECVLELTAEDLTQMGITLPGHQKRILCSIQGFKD

[8] = target: Dual specificity protein kinase CLK3 (Homo sapiens, UniProt P49761); assay type: subcellular, K-562, COLO 205, SK-N-BE(2) and MV-4-11, Cell lysate; conditions: read-out: Kd apparent
Chain of Dual specificity protein kinase CLK3 (P49761 whole entry): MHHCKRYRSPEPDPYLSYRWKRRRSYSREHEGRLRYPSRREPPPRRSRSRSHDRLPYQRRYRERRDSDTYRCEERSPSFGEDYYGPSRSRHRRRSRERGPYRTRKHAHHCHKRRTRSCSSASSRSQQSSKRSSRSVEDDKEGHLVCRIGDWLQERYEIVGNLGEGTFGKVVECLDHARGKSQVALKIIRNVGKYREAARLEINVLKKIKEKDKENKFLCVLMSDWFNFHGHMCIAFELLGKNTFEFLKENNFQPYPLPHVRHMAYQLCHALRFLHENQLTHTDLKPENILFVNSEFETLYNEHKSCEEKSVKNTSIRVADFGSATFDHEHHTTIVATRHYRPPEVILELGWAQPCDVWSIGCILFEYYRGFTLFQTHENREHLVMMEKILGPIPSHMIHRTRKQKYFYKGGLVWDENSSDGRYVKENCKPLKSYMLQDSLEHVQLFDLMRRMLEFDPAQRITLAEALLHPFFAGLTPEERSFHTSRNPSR

[9] = target: MAP kinase-activated protein kinase 3 (Homo sapiens, UniProt Q16644)
Chain of MAP kinase-activated protein kinase 3 (Q16644 whole entry): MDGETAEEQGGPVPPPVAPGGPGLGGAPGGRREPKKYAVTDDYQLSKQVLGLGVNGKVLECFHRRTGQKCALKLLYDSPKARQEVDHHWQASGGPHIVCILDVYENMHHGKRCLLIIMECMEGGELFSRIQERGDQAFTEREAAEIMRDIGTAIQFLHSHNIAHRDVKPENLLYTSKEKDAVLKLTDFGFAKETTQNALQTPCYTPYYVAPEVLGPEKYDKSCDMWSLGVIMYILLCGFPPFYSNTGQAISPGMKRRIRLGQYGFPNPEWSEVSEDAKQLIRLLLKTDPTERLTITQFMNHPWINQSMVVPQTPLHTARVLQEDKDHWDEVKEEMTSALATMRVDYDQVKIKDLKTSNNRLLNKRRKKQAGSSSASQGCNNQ

[10] = target: Cell division cycle 7-related protein kinase (Homo sapiens, UniProt O00311)
Chain of Cell division cycle 7-related protein kinase (O00311 whole entry): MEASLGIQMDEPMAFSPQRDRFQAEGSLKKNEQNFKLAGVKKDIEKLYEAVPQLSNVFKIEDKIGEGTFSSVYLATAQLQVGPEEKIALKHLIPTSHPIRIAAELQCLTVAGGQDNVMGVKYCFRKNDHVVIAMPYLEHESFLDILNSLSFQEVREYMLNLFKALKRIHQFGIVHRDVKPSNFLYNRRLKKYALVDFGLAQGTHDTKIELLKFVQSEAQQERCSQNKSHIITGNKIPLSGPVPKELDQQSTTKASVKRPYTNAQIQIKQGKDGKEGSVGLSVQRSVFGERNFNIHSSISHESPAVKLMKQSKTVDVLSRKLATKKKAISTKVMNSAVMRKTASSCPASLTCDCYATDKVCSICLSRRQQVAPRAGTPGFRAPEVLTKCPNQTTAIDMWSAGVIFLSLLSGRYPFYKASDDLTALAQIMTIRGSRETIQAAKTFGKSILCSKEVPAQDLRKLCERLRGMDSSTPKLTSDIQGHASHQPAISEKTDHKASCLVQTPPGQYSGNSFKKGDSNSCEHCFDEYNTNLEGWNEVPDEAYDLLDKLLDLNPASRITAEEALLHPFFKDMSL

[11] = target: T3, Receptor-type tyrosine-protein kinase FLT3 (Homo sapiens, UniProt P36888)
T3 sequence (P36888 whole entry): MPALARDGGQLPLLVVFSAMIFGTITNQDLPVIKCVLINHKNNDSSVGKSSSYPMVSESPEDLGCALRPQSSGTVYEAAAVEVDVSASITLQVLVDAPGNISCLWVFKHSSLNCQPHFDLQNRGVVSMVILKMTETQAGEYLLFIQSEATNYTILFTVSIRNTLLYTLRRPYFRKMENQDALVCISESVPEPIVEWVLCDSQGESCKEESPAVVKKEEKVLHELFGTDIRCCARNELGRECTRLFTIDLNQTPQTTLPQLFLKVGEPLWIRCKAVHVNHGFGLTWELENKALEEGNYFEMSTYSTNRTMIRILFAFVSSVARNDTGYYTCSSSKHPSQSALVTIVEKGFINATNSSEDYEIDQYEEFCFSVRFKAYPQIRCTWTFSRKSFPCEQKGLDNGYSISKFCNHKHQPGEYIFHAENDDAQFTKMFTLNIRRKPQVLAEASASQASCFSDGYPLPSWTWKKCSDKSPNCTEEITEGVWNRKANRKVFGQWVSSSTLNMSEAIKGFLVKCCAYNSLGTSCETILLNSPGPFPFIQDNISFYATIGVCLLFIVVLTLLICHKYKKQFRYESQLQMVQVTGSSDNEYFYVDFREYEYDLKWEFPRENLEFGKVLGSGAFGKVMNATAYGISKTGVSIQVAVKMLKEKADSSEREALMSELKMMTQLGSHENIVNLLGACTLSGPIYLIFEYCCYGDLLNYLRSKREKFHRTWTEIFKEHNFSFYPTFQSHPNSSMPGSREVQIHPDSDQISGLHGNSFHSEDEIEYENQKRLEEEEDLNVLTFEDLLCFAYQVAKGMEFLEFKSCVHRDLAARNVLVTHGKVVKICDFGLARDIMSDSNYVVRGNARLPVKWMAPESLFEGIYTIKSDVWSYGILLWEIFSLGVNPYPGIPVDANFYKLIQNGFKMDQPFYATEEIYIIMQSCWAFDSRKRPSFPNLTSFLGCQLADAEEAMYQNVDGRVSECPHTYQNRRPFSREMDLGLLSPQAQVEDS
Further: in the data inactive means no Kd found up to 30 µM.

Chain of Dual specificity testis-specific protein kinase 1 (Q15569 whole entry): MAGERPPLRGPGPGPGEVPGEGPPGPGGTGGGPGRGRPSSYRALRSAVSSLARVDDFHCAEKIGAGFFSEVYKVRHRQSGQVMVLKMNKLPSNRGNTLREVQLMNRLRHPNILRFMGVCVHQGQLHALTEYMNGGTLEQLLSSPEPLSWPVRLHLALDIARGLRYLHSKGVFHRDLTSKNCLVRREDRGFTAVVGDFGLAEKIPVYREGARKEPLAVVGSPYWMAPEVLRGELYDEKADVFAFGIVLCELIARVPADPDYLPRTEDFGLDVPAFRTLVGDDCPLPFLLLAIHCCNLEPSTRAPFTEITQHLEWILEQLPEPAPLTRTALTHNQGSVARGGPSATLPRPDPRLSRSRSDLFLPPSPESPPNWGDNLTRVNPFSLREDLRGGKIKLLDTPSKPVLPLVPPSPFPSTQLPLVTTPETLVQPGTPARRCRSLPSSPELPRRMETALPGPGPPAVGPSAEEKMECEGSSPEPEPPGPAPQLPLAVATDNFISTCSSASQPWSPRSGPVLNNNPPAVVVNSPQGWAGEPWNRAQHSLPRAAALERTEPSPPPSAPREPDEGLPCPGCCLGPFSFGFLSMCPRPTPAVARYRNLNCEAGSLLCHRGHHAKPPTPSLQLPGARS
Chain of Epidermal growth factor receptor (P00533 whole entry): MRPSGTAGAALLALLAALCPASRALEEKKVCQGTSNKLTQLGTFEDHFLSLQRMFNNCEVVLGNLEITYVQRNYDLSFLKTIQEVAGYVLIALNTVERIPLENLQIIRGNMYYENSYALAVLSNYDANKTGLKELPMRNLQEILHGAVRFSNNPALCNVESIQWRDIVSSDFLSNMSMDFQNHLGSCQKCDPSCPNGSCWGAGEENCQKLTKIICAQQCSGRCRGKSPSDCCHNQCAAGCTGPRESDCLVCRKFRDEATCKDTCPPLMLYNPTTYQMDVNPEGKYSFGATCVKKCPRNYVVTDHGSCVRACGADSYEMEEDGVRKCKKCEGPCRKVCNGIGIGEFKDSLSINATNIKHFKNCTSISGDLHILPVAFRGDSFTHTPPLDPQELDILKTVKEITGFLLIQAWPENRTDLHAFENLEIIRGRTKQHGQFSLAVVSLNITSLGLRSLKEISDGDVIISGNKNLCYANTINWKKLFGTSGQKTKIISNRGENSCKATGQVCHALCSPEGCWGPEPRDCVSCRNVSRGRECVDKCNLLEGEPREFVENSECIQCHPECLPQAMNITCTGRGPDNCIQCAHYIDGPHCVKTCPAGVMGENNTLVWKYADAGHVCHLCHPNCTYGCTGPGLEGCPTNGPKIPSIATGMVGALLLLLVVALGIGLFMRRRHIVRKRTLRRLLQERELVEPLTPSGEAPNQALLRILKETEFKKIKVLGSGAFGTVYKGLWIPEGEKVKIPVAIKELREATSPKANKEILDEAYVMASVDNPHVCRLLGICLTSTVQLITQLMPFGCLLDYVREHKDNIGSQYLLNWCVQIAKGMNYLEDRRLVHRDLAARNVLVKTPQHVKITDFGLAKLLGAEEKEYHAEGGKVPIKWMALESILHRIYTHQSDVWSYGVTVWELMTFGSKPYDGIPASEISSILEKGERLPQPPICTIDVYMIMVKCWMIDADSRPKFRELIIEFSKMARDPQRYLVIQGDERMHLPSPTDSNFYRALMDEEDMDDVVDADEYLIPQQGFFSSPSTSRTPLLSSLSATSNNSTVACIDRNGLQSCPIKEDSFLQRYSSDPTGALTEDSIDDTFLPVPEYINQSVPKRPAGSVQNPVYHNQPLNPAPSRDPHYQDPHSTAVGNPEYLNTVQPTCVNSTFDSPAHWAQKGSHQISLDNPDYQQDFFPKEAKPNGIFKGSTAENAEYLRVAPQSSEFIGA

Compound | Kd [1] | Kd [2] | Kd [3] | Kd [4] | Kd [5] | Kd [6] | Kd [7] | Kd [8] | Kd [9] | Kd [10] | Kd [11]
Cc1cc(Nc2nc(N[C@@H](C)c3ncc(F)cn3)ncc2Cl)n[nH]1 [AZD-1480] | > 30 µM (inactive) | > 30 µM (inactive) | > 30 µM (inactive) | > 30 µM (inactive) | 0.191 µM (active) | > 30 µM (inactive) | > 30 µM (inactive) | > 30 µM (inactive) | > 30 µM (inactive) | > 30 µM (inactive) | 1.68 µM (active)
C#Cc1cccc(Nc2ncnc3cc4c(cc23)OCCOCCOCCO4)c1 [ICOTINIB] | 10.1 µM (active) | > 30 µM (inactive) | > 30 µM (inactive) | > 30 µM (inactive) | > 30 µM (inactive) | > 30 µM (inactive) | > 30 µM (inactive) | > 30 µM (inactive) | > 30 µM (inactive) | > 30 µM (inactive) | > 30 µM (inactive)
COCCN1CCN(Cc2ccc(-c3n[nH]c4c3C(=O)c3c(NC(=O)NN5CCOCC5)cccc3-4)cc2)CC1 [RGB-286638] | > 30 µM (inactive) | > 30 µM (inactive) |  | > 30 µM (inactive) | > 30 µM (inactive) | 0.002 µM | > 30 µM (inactive) | > 30 µM (inactive) | > 30 µM (inactive) | > 30 µM (inactive) | 0.323 µM (active)
